Results on 4 compounds are retold here after patent US5256682A, “Isoxazolylimidazole derivatives, process for their production and their use in pharmaceutical agents” (Schering Aktiengesellschaft, priority 1991, dated 1993).

Structures are written as SMILES.

A short description of the data set: Metabolic stability: % of test substance remaining after incubation with mouse liver homogenate. The format is in vitro ADME. The following applies: amount not catabolized, in % of the zero value; 120 minutes, 37° C., pH 7.3; NMRI mouse liver homogenate; HPLC; read-out: % Radical after incubation with mouse liver homogenate. Here is the method:
The stability of the compounds was measured as follows:
The test substance (1 μg/50 μl of ethanol) was adjusted with 750 μl of Krebs-Henseleit-Ringer phosphate buffer to pH 7.3 and brought together with 750 μl of a liver homogenate at room temperature and mixed. 250 μl of this batch was removed for zero-point determination and the batch was incubated at 37° C. with continuous movement in a water bath. Aliquot parts of 250 μl are removed after 120 minutes, extracted with 3 ml of diethyl ether after 5 minutes of shaking, then centrifuged for 10 minutes under cooling, frozen, the ether is decanted and dried in a dry nitrogen stream. The residue is dissolved in each case in 200 μl of ethanol and the solution is analyzed with HPLC. The liver used was obtained from NMRI mice and homogenized after removal immediate in 4 parts of a 0.25 molar sucrose solution in a Potter-Elvehjem mixer. The homogenate was then filtered through linen and diluted with the same sucrose solution to 1:10 (weight: volume). Aliquot parts of the solution were stored at -18° C.

As to `COCc1cc(-c2ncn(-c3cccc(Oc4ccccc4)c3)c2C)on1` [D, 4-(3-Methoxymethyl-isoxazol-5-yl)-5-methyl-1-(3-phenoxyphenyl)-imidazole], the remaining at 2 h was determined as 100%.

In the case of `CCc1cc(-c2ncn(-c3cccc(Oc4ccccc4)c3)c2C)on1` [B, 4-(3-Ethyl-isoxazol-5-yl)-5-methyl-1-(3-phenoxyphenyl)imidazole], the remaining at 2 h was found to be 95%.

On to `CCc1cc(-c2ncn(-c3cccc(Oc4ccccc4)c3)c2C)no1` [C, 4-(5-Ethyl-isoxazol-3-yl)-5-methyl-1-(3-phenoxyphenyl)imidazole], for which the remaining at 2 h was 71%.

For `CCc1nc(-c2ncn(-c3cccc(Oc4ccccc4)c3)c2C)no1` [A, 4-(5-ethyl-1,2,4-oxadiazol-3-yl)-5-methyl-1-(3-phenoxy-phenyl)-imidazole, reference compound], the remaining at 2 h is 31%.
